Source: patent publication US20170224653A1, “TLR-INDEPENDENT SMALL MOLECULE ADJUVANTS” (The Scripps Research Institute, priority 2014, published 2017)

Columns and labels:
TLR4 = target: T1, TLR4 (Mus musculus, UniProt Q9JHF9+Q9QUK6); test: TLR4 agonist activity, stimulated TNF-alpha release in mouse macrophages; type: cell-based; conditions: for TLR4 agonist efficacy: relative to neoseptin-1 or LPS
T1 construct: measuring the stimulated TNF-alpha release in mouse macrophages; endogenous in cells; host or cells: mouse macrophages
T1 sequence (Q9QUK6 26-835): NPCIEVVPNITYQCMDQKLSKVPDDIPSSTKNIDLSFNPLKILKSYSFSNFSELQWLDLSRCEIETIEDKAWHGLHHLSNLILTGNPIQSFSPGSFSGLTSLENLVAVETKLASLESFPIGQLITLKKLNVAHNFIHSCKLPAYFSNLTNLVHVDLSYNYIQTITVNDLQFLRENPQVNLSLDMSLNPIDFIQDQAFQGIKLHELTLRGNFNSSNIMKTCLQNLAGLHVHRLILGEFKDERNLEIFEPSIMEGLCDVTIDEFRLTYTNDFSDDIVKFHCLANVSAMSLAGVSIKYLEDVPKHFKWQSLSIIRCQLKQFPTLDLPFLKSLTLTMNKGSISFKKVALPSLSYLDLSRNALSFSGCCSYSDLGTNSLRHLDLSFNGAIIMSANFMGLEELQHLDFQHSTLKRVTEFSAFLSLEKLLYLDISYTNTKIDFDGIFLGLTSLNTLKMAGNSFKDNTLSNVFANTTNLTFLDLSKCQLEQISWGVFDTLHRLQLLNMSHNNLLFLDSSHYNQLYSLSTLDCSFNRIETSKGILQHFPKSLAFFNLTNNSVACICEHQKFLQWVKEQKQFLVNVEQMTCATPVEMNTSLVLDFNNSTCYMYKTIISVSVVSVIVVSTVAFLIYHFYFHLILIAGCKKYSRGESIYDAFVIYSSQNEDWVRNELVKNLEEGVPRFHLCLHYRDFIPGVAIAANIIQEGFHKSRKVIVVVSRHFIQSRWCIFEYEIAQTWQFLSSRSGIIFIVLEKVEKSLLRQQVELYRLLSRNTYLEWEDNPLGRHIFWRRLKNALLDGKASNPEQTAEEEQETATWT
T1 sequence (Q9JHF9 19-160): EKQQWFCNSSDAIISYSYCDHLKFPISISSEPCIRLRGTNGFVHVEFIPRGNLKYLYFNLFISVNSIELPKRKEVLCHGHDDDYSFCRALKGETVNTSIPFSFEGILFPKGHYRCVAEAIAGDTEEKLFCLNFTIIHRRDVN
Source text: In efforts to improve the TLR4 agonist activity of an initial screening lead, neoseptin-1 (below), measuring the stimulated TNF-alpha release in mouse macrophages, Compound 125-03, used herein as illustrative of the contemplated compounds, emerged as a key compound capable of stimulating the immune response (below). […] [TLRs […] have been lost from the mouse genome, and TLRs 11, 12 and 13 have been lost from the human genome. Beutler, Blood, 113:1399-1407 (2009).]

THP-1 cells = test: TNF-α production upon compound treatment of THP-1 cells; type: cell-based; conditions: FIG. 2
C57BL/6J mice = test: Adjuvant effect with ovalbumin, intramuscular immunization, serum OVA-specific IgG by ELISA; type: in vivo, mouse
Experimental: In FIG. 3, adjuvants were mixed with ovalbumin (OVA, 100 μg) and injected intramuscularly into C57BL/6J mice at the indicated doses. Two immunizations were administered with a booster given at 7 days.
FIG. 4 provides a series of graphs that show anti-olvalbumin titers at 14 days post immunization using adjuvants with ovalbumin (OVA, 100 μg) and injected intramuscularly into C57BL/6J mice. The adjuvants used were Compound 125-03, neoseptin-3 (below), LPS, MPLA (monophosphoryl lipid A from […]

mouse macrophages = test: TNF-α production in macrophages from mice with germline mutations or knockouts of TLR and signaling genes; type: cell-based
Source text: Induced TNF-α production was established with the use of macrophages from mice bearing germline genetic defects or knockouts of each of the genes encoding the TLRs or their downstream signaling molecules uniquely available in the laboratories of Professor Bruce Beutler, (University of Texas Southwestern Medical Center, Dallas, Tex.). See, (a) mutagenetix.utsouthwestern.edu.; (b) Arnold et al., (2012) ENU-induced phenovariance in mice: Inferences from 587 mutations. BMC Res. Notes. 5, 577-0500-5-577.

TLR ligands = test: Mechanistic studies: responses to TLR ligands; type: cell-based; conditions: TLR ligands including neoseptin-3
Cyld = target: T2, Cyld (Homo sapiens, UniProt Q9NQC7); test: In vitro assay of Cyld activity; type: biochemical
T2 sequence (Q9NQC7 1-956): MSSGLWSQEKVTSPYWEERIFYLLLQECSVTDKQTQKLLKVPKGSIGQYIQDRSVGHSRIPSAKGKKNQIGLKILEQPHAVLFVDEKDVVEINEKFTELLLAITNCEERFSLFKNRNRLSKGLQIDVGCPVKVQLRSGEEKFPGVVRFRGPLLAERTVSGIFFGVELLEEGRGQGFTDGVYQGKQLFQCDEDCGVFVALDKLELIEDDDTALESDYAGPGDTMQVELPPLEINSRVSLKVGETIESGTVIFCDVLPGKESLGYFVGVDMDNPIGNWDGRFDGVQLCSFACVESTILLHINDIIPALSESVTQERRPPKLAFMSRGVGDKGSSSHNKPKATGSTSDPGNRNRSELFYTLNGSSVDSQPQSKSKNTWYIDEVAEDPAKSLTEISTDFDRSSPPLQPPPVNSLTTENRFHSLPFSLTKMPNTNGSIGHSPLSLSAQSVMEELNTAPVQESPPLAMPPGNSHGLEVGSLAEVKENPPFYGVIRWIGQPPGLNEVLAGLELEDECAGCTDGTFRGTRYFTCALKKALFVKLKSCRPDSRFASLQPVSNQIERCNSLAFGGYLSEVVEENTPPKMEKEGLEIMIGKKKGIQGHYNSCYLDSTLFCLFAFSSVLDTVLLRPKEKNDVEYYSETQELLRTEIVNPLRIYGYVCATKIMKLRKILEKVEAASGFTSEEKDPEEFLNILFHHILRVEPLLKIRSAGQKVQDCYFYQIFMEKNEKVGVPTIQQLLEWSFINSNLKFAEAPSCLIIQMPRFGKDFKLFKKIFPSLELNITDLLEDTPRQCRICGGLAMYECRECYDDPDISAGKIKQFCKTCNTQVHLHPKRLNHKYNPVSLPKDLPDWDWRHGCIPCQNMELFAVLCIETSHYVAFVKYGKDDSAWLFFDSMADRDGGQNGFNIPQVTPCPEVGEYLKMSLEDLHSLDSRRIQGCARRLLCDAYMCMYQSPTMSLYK

[1] = Overt toxicity when used as an adjuvant at maximum doses; type: in vivo; conditions: maximum doses capable of administration, compared with LPS

| TLR4 agonism (TLR4) | effect on Cyld activity (Cyld) | Compound | TLR4 agonist efficacy (TLR4) | release of TNF-alpha from differentiated human THP-1 cells (THP-1 cells) | concentration needed for an antibody response similar to Compound 125-03 (C57BL/6J mice; at fourteen days) | TLR dependence of stimulated TNF-alpha production (mouse macrophages; macrophages from mice with disabling mutations or knockouts of TLR genes, FIG. 1) | stimulating the release of TNF-alpha in mouse macrophages (mouse macrophages; mouse macrophages) | effect on responses to TLR ligands (TLR ligands) | overt toxicity [1] | adjuvant activity, serum OVA-specific IgG (C57BL/6J mice; OVA 100 μg, intramuscular, booster at 7 days, day 35 post-immunization, FIG. 3) | adjuvant activity compared with alum (C57BL/6J mice; anti-ovalbumin titers, 14 days post immunization, concentrations used, FIG. 4) |
| --- | --- | --- | --- | --- | --- | --- | --- | --- | --- | --- | --- |
|  |  | N[C@@H](Cc1ccccc1)C(=O)Nc1ccc(C(=O)N[C@@H](CCc2ccccc2)C(=O)O)cc1CCc1ccc(O)cc1 [MM-1-88] | significant enhancement in TLR4 agonist efficacy |  |  |  |  |  |  |  |  |
| TLR4-agonist |  | CC(C)(C)OC(=O)[C@H](CCc1ccccc1)NC(=O)c1ccc(N)c(CCc2ccc(O)cc2)c1 [neoseptin-3, reference compound] | nearly matching the efficacy of LPS | not active in human cells | about twice the concentration |  |  |  |  |  |  |
|  | directly inhibits Cyld activity | O=C(NCCCc1ccccc1)c1ccc(NC(=O)c2cc3ccccc3o2)c(OCCc2ccc(O)cc2)c1 [Compound 125-03, N-(2-(4-Hydroxyphenethoxy)-4-((3-phenylpropyl)-carbamoyl)phenyl)benzofuran-2-carboxamide] |  | dose dependent activity |  | independent of the TLRs including TLR4/MD-2 | active | markedly increased responses to TLR ligands | did not display the overt toxicity | robust, dose-dependent adjuvant activity | more effective than alum |
